Assay [1] relates to U2OS. Briefly: (§1) Here: values are normalized to the negative (DMSO; defined as 0% autophagy induction) and positive (250nM Torin1; mTOR inhibitor; defined as maximal inducer of autophagy = 100%) control compounds and represented as % of autophagy induction. […] The impact of autophagy induction on cells is complex and depends on the affected target. As such, the magnitude of a phenotype may not be equally mirrored in the %-value of autophagy induction and vice versa. The dynamics of the induction may indicate the mode of activation: e.g. activation via phosphorylation or a signaling cascade may occur fast, while activation via transcription factors may take considerably longer. […] Of note, treatment concentrations may be sub-optimal for specific compounds, leading to false negative annotations. The assay is classed as functional, Homo sapiens. The following applies: Culturing Media DMEM, 1 % Penicillin/Streptomycin, 10% Fetal bovin serum Add-On: No, Screening Media Control DMEM, Screening Media Samples DMEM.

In assay [2] the test system is U2OS. The assay is described as §1. The following applies: Culturing Media DMEM, 1 % Penicillin/Streptomycin, 10% Fetal bovin serum Add-On: No, Screening Media Control DMEM, Screening Media Samples DMEM. Type of assay: functional, Homo sapiens. This is another data set of the same source.
Setting [3] is: Compound Concentration 0.5 uM, Timepoint 12 hours.
The mark [4] stands for this setting: Compound Concentration 0.5 uM, Timepoint 24 hours.
[5] abbreviates: Compound Concentration 0.5 uM, Timepoint 36 hours.
Where [6] appears, read: Compound Concentration 0.5 uM, Timepoint 60 hours.
The mark [7] stands for this setting: Compound Concentration 2 uM, Timepoint 12 hours.
[8] abbreviates: Compound Concentration 2 uM, Timepoint 24 hours.
Setting [9] is: Compound Concentration 2 uM, Timepoint 36 hours.
The mark [10] stands for this setting: Compound Concentration 2 uM, Timepoint 60 hours.
[11] abbreviates: Compound Concentration 10 uM, Timepoint 12 hours.
Setting [12] is: Compound Concentration 10 uM, Timepoint 24 hours.
Where [13] appears, read: Compound Concentration 10 uM, Timepoint 36 hours.
The mark [14] stands for this setting: Compound Concentration 10 uM, Timepoint 60 hours.

The structures appear in SMILES notation.

Turning to `Cc1cc(NC(=O)Nc2ccc(N(C)C)cc2)c2cc(F)cc(F)c2n1`, the autophagy induction in assay [1] (setting [3]) is -2.687%; in assay [1] (setting [4]), -3.664%; in assay [1] (setting [5]) it was -3.669%; in assay [1] (setting [6]), 114.219%; in assay [1] (setting [7]), -0.9187%; in assay [1] (setting [8]), -2.555%. In addition, the autophagy induction in assay [1] (setting [9]) is listed as -1.904%; in assay [1] (setting [10]) it was 114.2%; in assay [1] (setting [11]), 1.036%; in assay [1] (setting [12]), -2.2709%; in assay [1] (setting [13]), 0.4658%; in assay [1] (setting [14]) it was 113.441%. For the same compound, the autophagy induction in assay [2] (setting [3]) is -3.035%; in assay [2] (setting [4]), -2.6114%; in assay [2] (setting [5]), -4.581%; in assay [2] (setting [6]), -2.138%; in assay [2] (setting [7]) it was -10.8002%; in assay [2] (setting [8]) it was -10.6502%. Moreover, the autophagy induction is reported as -6.099% in assay [2] (setting [9]); -2.686% in assay [2] (setting [10]); 2.643% in assay [2] (setting [11]); 9.654% in assay [2] (setting [12]); 13.8869% in assay [2] (setting [13]); 31.5866% in assay [2] (setting [14]).

`COc1ccc(/C=C/CCCCOc2ccc(C(=O)c3cccc(C(=O)O)c3)cc2CCC(=O)O)cc1`: the autophagy induction is recorded as -1.627% in assay [1] (setting [3]); -2.76% in assay [1] (setting [4]); -1.525% in assay [1] (setting [5]); 114.261% in assay [1] (setting [6]); 2.991% in assay [1] (setting [7]); -2.166% in assay [1] (setting [8]). The autophagy induction in assay [1] (setting [9]) is given as -0.5097%; in assay [1] (setting [10]), 114.413%; in assay [1] (setting [11]), 6.765%; in assay [1] (setting [12]), 1.033%; in assay [1] (setting [13]), 1.832%; in assay [1] (setting [14]) it was 114.224%. In addition, the autophagy induction in assay [2] (setting [3]) is given as 4.029%; in assay [2] (setting [4]) it was -1.055%; in assay [2] (setting [5]), -5.293%; in assay [2] (setting [6]), -4.291%; in assay [2] (setting [7]), -4.414%; in assay [2] (setting [8]), -2.822%. Moreover, the autophagy induction is -3.285% in assay [2] (setting [9]); 2.49% in assay [2] (setting [10]); -13.0779% in assay [2] (setting [11]); -9.945% in assay [2] (setting [12]); -0.5172% in assay [2] (setting [13]); -0.9267% in assay [2] (setting [14]).

The values are drawn from ChEMBL document CHEMBL5724696, “Autophagy assay results for EUbOPEN Chemogenomics Library” (2024).
